Results as given in patent US12209144B2, “Cyclic peptides as proprotein convertase subtilisin/kexin type 9 (PCSK9) inhibitors for the treatment of metabolic disorders” (Novartis AG, priority 2018, dated 2025).
Bridge positions count the residues as written; N and C are the ends. Square brackets hold non-standard residues; d marks the D form. Peptide text beside a SMILES is read from it. Bip = N[C@@H](Cc1ccc(-c2ccccc2)cc1)C(=O)O; NMeF = CN[C@@H](Cc1ccccc1)C(=O)O; NMeA = CN[C@@H](C)C(=O)O

These molecules were tested against human PCSK9 (Homo sapiens, UniProt Q8NBP7) (assay: PCSK9 ligand binding assay (TR-FRET): interference with binding of human PCSK9 to human LDLR). Conditions: PCSK9 FRET assay, efficacy (Amax); 0% = DMSO, 100% = 1 uM unlabeled human PCSK9.
Chain of human PCSK9 (Q8NBP7 153-692): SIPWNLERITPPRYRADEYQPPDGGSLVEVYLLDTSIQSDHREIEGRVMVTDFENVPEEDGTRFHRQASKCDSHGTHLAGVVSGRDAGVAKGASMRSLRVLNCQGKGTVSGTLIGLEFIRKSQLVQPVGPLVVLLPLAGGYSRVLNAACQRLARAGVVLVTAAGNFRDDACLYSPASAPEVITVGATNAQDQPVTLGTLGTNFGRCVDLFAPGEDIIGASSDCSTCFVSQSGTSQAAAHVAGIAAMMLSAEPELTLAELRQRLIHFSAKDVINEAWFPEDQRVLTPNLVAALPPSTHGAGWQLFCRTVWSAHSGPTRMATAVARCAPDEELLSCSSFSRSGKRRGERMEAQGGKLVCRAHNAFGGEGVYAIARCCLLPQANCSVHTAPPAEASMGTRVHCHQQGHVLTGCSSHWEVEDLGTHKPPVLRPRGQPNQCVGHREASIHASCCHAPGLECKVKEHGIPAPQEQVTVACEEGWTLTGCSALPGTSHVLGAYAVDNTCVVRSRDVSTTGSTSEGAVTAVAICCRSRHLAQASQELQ
Chain of human PCSK9 (Q8NBP7 31-152 partner limits assumed): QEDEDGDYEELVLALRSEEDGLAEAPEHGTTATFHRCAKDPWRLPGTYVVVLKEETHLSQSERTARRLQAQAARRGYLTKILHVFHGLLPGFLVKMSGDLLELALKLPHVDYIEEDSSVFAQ

Compound | Maximum % inhibition
CC(C)[C@@H]1NC(=O)[C@H](Cc2ccccc2)NC(=O)CSC[C@@H](C(=O)NCC(N)=O)NC(=O)[C@@H]2CCCN2C(=O)[C@H](CO)NC(=O)[C@H](CCC(=O)O)NC(=O)[C@H](C)N(C)C(=O)[C@H](Cc2ccc(-c3ccccc3)cc2)NC(=O)[C@H](Cc2ccccc2)N(C)C(=O)[C@H](CO)NC(=O)[C@H]([C@@H](C)O)NC(=O)[C@H]([C@@H](C)O)NC(=O)[C@H](CC(=O)O)NC1=O [Example 1-5, Ac*-F-V-D-T-T-S-(N-Me)F-B-(N-Me)A-E-S-P-C*-G-NH2] ({CH2CO}-FVDTTS[NMeF][Bip][NMeA]ESPCG-NH2; thioether N-13) | 95%
CC(C)[C@@H]1NC(=O)[C@H](Cc2ccccc2)NC(=O)CSC[C@@H](C(=O)NCC(N)=O)NC(=O)[C@@H]2CCCN2C(=O)[C@H](CO)NC(=O)[C@H](CCC(=O)O)NC(=O)[C@H](C)N(C)C(=O)[C@H](Cc2ccc(-c3ccccc3)cc2)NC(=O)[C@H](Cc2ccccc2)N(C)C(=O)[C@H](CO)NC(=O)[C@H]([C@@H](C)O)NC(=O)[C@H]([C@@H](C)O)NC(=O)[C@H](CO)NC1=O [Example 1-12, Ac*-F-V-S-T-T-S-(N-Me)F-B-(N-Me)A-E-S-P-C*-G-NH2] ({CH2CO}-FVSTTS[NMeF][Bip][NMeA]ESPCG-NH2; thioether N-13) | 87%
CC(C)[C@@H]1NC(=O)[C@H](Cc2ccccc2)NC(=O)CSC[C@@H](C(=O)NCC(N)=O)NC(=O)[C@@H]2CCCN2C(=O)[C@H](CO)NC(=O)[C@H](CCC(=O)O)NC(=O)[C@H](C)N(C)C(=O)[C@H](Cc2ccc(-c3ccccc3)cc2)NC(=O)[C@H](C)N(C)C(=O)[C@H](Cc2ccc(-c3ccccc3)cc2)NC(=O)[C@H]([C@@H](C)O)NC(=O)[C@H]([C@@H](C)O)NC(=O)[C@H](CC(=O)O)NC1=O [Example 1-10, Ac*-F-V-D-T-T-B-(N-Me)A-B-(N-Me)A-E-S-P-C*-G-NH2] ({CH2CO}-FVDTT[Bip][NMeA][Bip][NMeA]ESPCG-NH2; thioether N-13) | 90%
CC(C)[C@@H]1NC(=O)[C@H](Cc2ccccc2)NC(=O)CSC[C@@H](C(=O)NCC(N)=O)NC(=O)[C@@H]2CCCN2C(=O)[C@H](CCCNC(=N)N)NC(=O)[C@H](CC(=O)O)NC(=O)[C@H](C)N(C)C(=O)[C@H](Cc2ccc(-c3ccccc3)cc2)NC(=O)[C@H](Cc2ccccc2)N(C)C(=O)[C@H](CO)NC(=O)[C@H]([C@@H](C)O)NC(=O)[C@H]([C@@H](C)O)NC(=O)[C@H](CO)NC1=O [Example 1-9, Ac*-F-V-S-T-T-S-(N-Me)F-B-(N-Me)A-D-R-P-C*-G-NH2] ({CH2CO}-FVSTTS[NMeF][Bip][NMeA]DRPCG-NH2; thioether N-13) | 35%
